Test results reported in article PMC11943675, “Studies of Piper auritum Kuntz’s Mutagenic and Antimutagenic Properties Using the Ames Test” (Metabolites, 2025).
“And” between values parts separate entries of the source, which are not always exact repeats. Equal entries are not always repeated. Where two headings read alike, the source gives them in different places.

Experiments:
S. typhimurium TA98 [1] = test: Ames test (Salmonella/microsome mutagenicity assay), strain TA98; assay type: cell-based, Salmonella typhimurium
Description: (§1) The study was carried out according to the indications of Maron and Ames, as well as with the recommendations expressed by the OCDE with respect to this assay. The Salmonella typhimurium strains used were TA98, TA100, TA102, TA1535, and TA1537.
(§2) In this case, the concentrations used were 10, 50, 100, 500, and 1000 µg/plate. Both studies were performed without and with the inclusion of the S9 fraction. In the last case, the S9 fraction was mixed with 5 mM glucose-6 phosphate, 4 mM NADPH, 8 mM MgCl2, and phosphate buffer at pH 7.4. The reaction mixture with or without S9 was placed in Petri dishes containing minimum agar plus glucose and Vogel–Bonner salts and left at 37 °C for 48 h. Finally, the number of revertant colonies (His^+) in each treatment was counted. Importantly, we used different mutagens as positive controls depending on the strain.
(§3) The toxicity of the tested agents was assessed by observing background bacterial growth on minimal agar plates due to traces of histidine in the medium.

S. typhimurium TA100 = test: Ames test (Salmonella/microsome mutagenicity assay), strain TA100; assay type: cell-based, Salmonella typhimurium
Description: as §1, §2, §3

S. typhimurium TA1535 = assay type: cell-based, Salmonella typhimurium; conditions: positive mutagen
Description: as §1, §2, §3

S. typhimurium TA1537 = test: Ames test (Salmonella/microsome mutagenicity assay), strain TA1537; assay type: cell-based, Salmonella typhimurium
Description: as §1, §2, §3

S. typhimurium TA102 = test: Ames test (Salmonella/microsome mutagenicity assay), strain TA102; assay type: cell-based, Salmonella typhimurium
Description: as §1, §2, §3

[2] = tested on: Salmonella typhimurium strains TA98, TA100, TA102, TA1535, and TA1537; test: Ames test, overall verdict over the five strains; assay type: cell-based
Description: as §1, §2, §3

human CYP1A1 [3] = molecular target: T1, human CYP1A1 (Homo sapiens, UniProt P04798); conditions: nonlinear regression and Lineweaver–Burk plots
T1 sequence (P04798 1-512): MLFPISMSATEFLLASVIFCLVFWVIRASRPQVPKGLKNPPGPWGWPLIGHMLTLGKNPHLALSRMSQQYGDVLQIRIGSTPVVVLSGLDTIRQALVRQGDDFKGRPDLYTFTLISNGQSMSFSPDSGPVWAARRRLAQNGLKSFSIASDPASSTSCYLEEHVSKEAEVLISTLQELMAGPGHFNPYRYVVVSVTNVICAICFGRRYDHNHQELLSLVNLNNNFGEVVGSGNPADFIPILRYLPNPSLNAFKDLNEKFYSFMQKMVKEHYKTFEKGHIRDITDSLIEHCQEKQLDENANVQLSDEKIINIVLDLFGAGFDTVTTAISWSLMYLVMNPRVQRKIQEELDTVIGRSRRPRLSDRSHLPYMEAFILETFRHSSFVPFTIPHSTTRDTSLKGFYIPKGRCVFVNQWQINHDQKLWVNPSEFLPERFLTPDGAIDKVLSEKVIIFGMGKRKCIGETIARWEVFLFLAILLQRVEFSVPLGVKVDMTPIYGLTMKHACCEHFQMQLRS
Description: (§4) The protein content was estimated via the Bradford assay.
(§5) To determine the type of inhibition, an incubation volume of 200 μL containing human CYP1A1 bacterial membranes (80 μg) and 0.5 mM NADPH in buffer pH 7.6 (50 mM Tris–HCl and 25 mM MgCl2) was used.

[4] = tested on: strain TA98 of S. typhimurium; conditions: cited from earlier work
S. typhimurium TA98 [5] = conditions: strain TA98; cited from earlier work
Salmonella typhimurium = conditions: cited from earlier work
mouse bone marrow = conditions: cited from earlier work
rat hepatocytes = conditions: cited from earlier work
human CYP1A1 [6] = molecular target: T1, human CYP1A1; test: biochemical
Description: as §4, §5

Question: For `O=[N+]([O-])c1ccc2c(c1)Cc1ccccc1-2` [2-nitrofluorene, reference compound], which “His^+ Revertants” value (S. typhimurium TA98 [1]; positive mutagen, TA98 (−S9), 5 µg) is on record?
Answer: The value was 2419 ± 169 ^1 and 2070 ± 44 ^1.

Question: And the “His^+ Revertants” value (S. typhimurium TA100; positive mutagen, TA100 (−S9), 5 µg)?
Answer: Its value is 1909 ± 428 ^1.

Question: Which “His^+ Revertants” value (S. typhimurium TA1535; TA1535 (+S9), 2 µg) does the source give for `Nc1ccc2cc3ccccc3cc2c1` [aminoanthracene, 2-aminoanthracene, reference compound] here?
Answer: The value was 371 ± 20 ^4.

Question: And the “His^+ Revertants” value (S. typhimurium TA1537; positive mutagen, TA1537 (+S9), 2 µg)?
Answer: Its value is 120 ± 12 ^4.

Question: And the “His^+ Revertants” value (S. typhimurium TA102; positive mutagen, TA102 (+S9), 5 µg)?
Answer: Its value is 2080 ± 27 ^7.

Question: For `CC1=NN(c2ccc([N+](=O)[O-])cc2)C(=O)C1[N+](=O)[O-]` (stereo not drawn) [picrolonic acid, reference compound], which “His^+ Revertants” value (S. typhimurium TA1537; positive mutagen, TA1537 (−S9), 100 µg) is on record?
Answer: The value was 63 ± 2 ^5.

Question: Which “His^+ Revertants” value (S. typhimurium TA98 [1]; TA98 (+S9), 10 μg/plate) does the source give for `C=CCc1ccc2c(c1)OCO2` [safrole, 5-(2-propenyl)-1,3-benzodioxone] here?
Answer: The value was 20 ± 2.

Question: What about the “His^+ Revertants” value (S. typhimurium TA98 [1]; TA98 (+S9), 50 μg/plate) of the same molecule?
Answer: Its value is 34 ± 8.

Question: What about the “His^+ Revertants” value (S. typhimurium TA98 [1]; TA98 (+S9), 100 μg/plate) of the same molecule?
Answer: The value was 38 ± 9.

Question: What about the “His^+ Revertants” value (S. typhimurium TA98 [1]; TA98 (+S9), 500 μg/plate) of the same molecule?
Answer: The value was 26 ± 9.

Question: And the “His^+ Revertants” value (S. typhimurium TA98 [1]; TA98 (+S9), 1000 μg/plate)?
Answer: The value was 36 ± 7.

Question: What about the “His^+ Revertants” value (S. typhimurium TA98 [1]; TA98 (−S9), 10 μg/plate) of the same molecule?
Answer: The value was 19 ± 3.

Question: And the “His^+ Revertants” value (S. typhimurium TA98 [1]; TA98 (−S9), 50 μg/plate)?
Answer: The value was 22 ± 7.

Question: What about the “His^+ Revertants” value (S. typhimurium TA98 [1]; TA98 (−S9), 100 μg/plate) of the same molecule?
Answer: The value was 27 ± 4.

Question: And the “His^+ Revertants” value (S. typhimurium TA98 [1]; TA98 (−S9), 500 μg/plate)?
Answer: The value was 18 ± 3.

Question: What about the “His^+ Revertants” value (S. typhimurium TA98 [1]; TA98 (−S9), 1000 μg/plate) of the same molecule?
Answer: Its value is 22 ± 9.

Question: What about the “His^+ Revertants” value (S. typhimurium TA100; TA100 (+S9), 10 μg/plate) of the same molecule?
Answer: Its value is 97 ± 18.

Question: And the “His^+ Revertants” value (S. typhimurium TA100; TA100 (+S9), 50 μg/plate)?
Answer: Its value is 108 ± 18.

Question: And the “His^+ Revertants” value (S. typhimurium TA100; TA100 (+S9), 100 μg/plate)?
Answer: The value was 105 ± 9.

Question: What about the “His^+ Revertants” value (S. typhimurium TA100; TA100 (+S9), 500 μg/plate) of the same molecule?
Answer: The value was 108 ± 9.

Question: And the “His^+ Revertants” value (S. typhimurium TA100; TA100 (+S9), 1000 μg/plate)?
Answer: The value was 102 ± 9.

Question: What about the “His^+ Revertants” value (S. typhimurium TA100; TA100 (−S9), 10 μg/plate) of the same molecule?
Answer: The value was 110 ± 16.

Question: And the “His^+ Revertants” value (S. typhimurium TA100; TA100 (−S9), 50 μg/plate)?
Answer: Its value is 120 ± 17.

Question: What about the “His^+ Revertants” value (S. typhimurium TA100; TA100 (−S9), 100 μg/plate) of the same molecule?
Answer: The value was 107 ± 10.

Question: What about the “His^+ Revertants” value (S. typhimurium TA100; TA100 (−S9), 500 μg/plate) of the same molecule?
Answer: The value was 100 ± 17.

Question: What about the “His^+ Revertants” value (S. typhimurium TA100; TA100 (−S9), 1000 μg/plate) of the same molecule?
Answer: Its value is 112 ± 6.

Question: And the “His^+ Revertants” value (S. typhimurium TA1537; TA1537 (+S9), 10 μg/plate)?
Answer: Its value is 12 ± 3.

Question: What about the “His^+ Revertants” value (S. typhimurium TA1537; TA1537 (+S9), 50 μg/plate) of the same molecule?
Answer: Its value is 10 ± 3.

Question: What about the “His^+ Revertants” value (S. typhimurium TA1537; TA1537 (+S9), 100 μg/plate) of the same molecule?
Answer: Its value is 10 ± 1.

Question: What about the “His^+ Revertants” value (S. typhimurium TA1537; TA1537 (+S9), 500 μg/plate) of the same molecule?
Answer: The value was 11 ± 4.

Question: And the “His^+ Revertants” value (S. typhimurium TA1537; TA1537 (+S9), 1000 μg/plate)?
Answer: The value was 9 ± 3.

Question: And the “His^+ Revertants” value (S. typhimurium TA1537; TA1537 (−S9), 10 μg/plate)?
Answer: Its value is 10 ± 3.

Question: And the “His^+ Revertants” value (S. typhimurium TA1537; TA1537 (−S9), 50 μg/plate)?
Answer: The value was 14 ± 4.

Question: And the “His^+ Revertants” value (S. typhimurium TA1537; TA1537 (−S9), 100 μg/plate)?
Answer: The value was 10 ± 1.

Question: And the “His^+ Revertants” value (S. typhimurium TA1537; TA1537 (−S9), 500 μg/plate)?
Answer: Its value is 12 ± 3.

Question: What about the “His^+ Revertants” value (S. typhimurium TA1537; TA1537 (−S9), 1000 μg/plate) of the same molecule?
Answer: Its value is 11 ± 4.

Question: And the “His^+ Revertants” value (S. typhimurium TA102; TA102 (+S9), 10 μg/plate)?
Answer: The value was 573 ± 6.

Question: What about the “His^+ Revertants” value (S. typhimurium TA102; TA102 (+S9), 50 μg/plate) of the same molecule?
Answer: The value was 558 ± 14.

Question: And the “His^+ Revertants” value (S. typhimurium TA102; TA102 (+S9), 100 μg/plate)?
Answer: The value was 520 ± 10.

Question: What about the “His^+ Revertants” value (S. typhimurium TA102; TA102 (+S9), 500 μg/plate) of the same molecule?
Answer: The value was 477 ± 17.

Question: What about the “His^+ Revertants” value (S. typhimurium TA102; TA102 (+S9), 1000 μg/plate) of the same molecule?
Answer: The value was 504 ± 12.

Question: What about the “His^+ Revertants” value (S. typhimurium TA102; TA102 (−S9), 10 μg/plate) of the same molecule?
Answer: The value was 502 ± 4.

Question: What about the “His^+ Revertants” value (S. typhimurium TA102; TA102 (−S9), 50 μg/plate) of the same molecule?
Answer: The value was 489 ± 19.

Question: What about the “His^+ Revertants” value (S. typhimurium TA102; TA102 (−S9), 100 μg/plate) of the same molecule?
Answer: The value was 484 ± 13.

Question: And the “His^+ Revertants” value (S. typhimurium TA102; TA102 (−S9), 500 μg/plate)?
Answer: Its value is 451 ± 18.

Question: What about the “His^+ Revertants” value (S. typhimurium TA102; TA102 (−S9), 1000 μg/plate) of the same molecule?
Answer: Its value is 512 ± 40.

Question: What about the “toxicity (background bacterial growth)” value ([2]; tested concentrations) of the same molecule?
Answer: The value was “absence of toxicity”.

Question: What about the mutagenic potential ([2]; with and without S9) of the same molecule?
Answer: The mutagenic potential was “absence of a mutagenic effect”.

Question: What about the type of inhibition (human CYP1A1 [3]) of the same molecule?
Answer: Its type of inhibition is “competitive inhibition”.

Question: And the “antimutagenic potential against heterocyclic aromatic amines” value [4]?
Answer: Its value is “strong antimutagenic potential”.

Question: And the mutagenicity (S. typhimurium TA98 [5])?
Answer: Its mutagenicity is “no mutagenicity”.

Question: What about the “mutagenicity, Ames test” value (Salmonella typhimurium) of the same molecule?
Answer: Its value is “negative”.

Question: What about the “mutagenicity, mouse bone marrow micronuclei assay” value (mouse bone marrow) of the same molecule?
Answer: Its value is “negative”.

Question: And the “DNA adducts and chromosomal aberrations” value (rat hepatocytes)?
Answer: Its value is “induction of DNA adducts and chromosomal aberrations”.

Question: And the gene mutations (rat hepatocytes)?
Answer: The gene mutations was “no gene mutations”.

Question: And the Ki (human CYP1A1 [6])?
Answer: Its Ki is 0.38 µM.

Question: With `[N-]=[N+]=[N-].[Na+]` [sodium azide] as the molecule, how does the “His^+ Revertants” value (S. typhimurium TA1535; TA1535 (−S9), 1 µg) read?
Answer: The value was 481 ± 28 ^3.
